Measurements from PubChem BioAssay (NCI).
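48-hour exposure; five concentrations; linearly interpolated endpoints. TGI: concentration producing complete growth inhibition.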

Key:
Assay in all cases: NCI tumour cell line growth inhibition, 48 h
COLO 205 colon = system: COLO 205 colon
SF-268 CNS = system: SF-268 CNS
UACC-62 melanoma = system: UACC-62 melanoma
MCF7 breast = system: MCF7 breast
KM12 colon = system: KM12 colon
A498 renal = system: A498 renal
U251 CNS = system: U251 CNS
RPMI-8226 leukemia = system: RPMI-8226 leukemia
OVCAR-8 ovarian = system: OVCAR-8 ovarian
NCI-H226 lung = system: NCI-H226 lung

Question: Which TGI (COLO 205 colon) does the source give for `CCC1C(=O)C[C@H]2[C@@H]3C(O)CC4=CC(=O)CC[C@]4(C)[C@H]3CC[C@]12C` (some centres not stated) here?
Answer: > 50 µM

Question: What about the TGI (SF-268 CNS) of the same compound?
Answer: > 50 µM

Question: What about the TGI (UACC-62 melanoma) of the same compound?
Answer: > 50 µM

Question: What about the TGI (MCF7 breast) of the same compound?
Answer: > 50 µM

Question: And the TGI (KM12 colon)?
Answer: > 50 µM

Question: What about the TGI (A498 renal) of the same compound?
Answer: > 50 µM

Question: What about the TGI (U251 CNS) of the same compound?
Answer: > 50 µM

Question: And the TGI (RPMI-8226 leukemia)?
Answer: > 50 µM

Question: And the TGI (OVCAR-8 ovarian)?
Answer: > 50 µM

Question: How did the TGI (COLO 205 colon) turn out when `CC(=O)OC[C@H]1O[C@@H](O[C@H]2[C@H](OC(C)=O)C=CO[C@@H]2COC(C)=O)C(OC(C)=O)[C@H]2OC(C)(C)O[C@H]21` (some centres not stated) was run?
Answer: > 100 µM

Question: And the TGI (SF-268 CNS)?
Answer: > 100 µM

Question: And the TGI (NCI-H226 lung)?
Answer: > 100 µM

Question: And the TGI (UACC-62 melanoma)?
Answer: > 100 µM

Question: What about the TGI (MCF7 breast) of the same compound?
Answer: > 100 µM

Question: And the TGI (KM12 colon)?
Answer: > 100 µM

Question: And the TGI (U251 CNS)?
Answer: > 100 µM

Question: And the TGI (OVCAR-8 ovarian)?
Answer: > 100 µM

Question: What does the source list for `O=C(Nc1sccc1S(=O)(=O)c1ccccc1)c1cccnc1`?
Answer: TGI (COLO 205 colon): 18 µM; TGI (SF-268 CNS): > 100 µM; TGI (NCI-H226 lung): > 59.3 µM; TGI (UACC-62 melanoma): > 100 µM; TGI (MCF7 breast): > 100 µM; TGI (KM12 colon): > 100 µM; TGI (U251 CNS): > 100 µM; TGI (RPMI-8226 leukemia): > 100 µM; TGI (OVCAR-8 ovarian): > 100 µM

Question: Which results are given for `CC1=NOC2(C1)/C(=N/O)CCC/C2=N\O` (configuration not stated)?
Answer: TGI (COLO 205 colon): > 100 µM; TGI (SF-268 CNS): > 100 µM; TGI (NCI-H226 lung): > 100 µM; TGI (UACC-62 melanoma): > 100 µM; TGI (MCF7 breast): > 100 µM; TGI (KM12 colon): > 100 µM; TGI (U251 CNS): > 100 µM; TGI (RPMI-8226 leukemia): > 100 µM; TGI (OVCAR-8 ovarian): > 100 µM

Question: Which results are given for `O=C(c1ccc(Cl)cc1)c1ccc(OCC(=O)N2CCN(c3ccccc3)CC2)cc1`?
Answer: TGI (COLO 205 colon): > 100 µM; TGI (SF-268 CNS): > 100 µM; TGI (NCI-H226 lung): > 100 µM; TGI (UACC-62 melanoma): > 100 µM; TGI (KM12 colon): > 100 µM; TGI (A498 renal): 78.9 µM; TGI (U251 CNS): > 100 µM; TGI (RPMI-8226 leukemia): > 100 µM; TGI (OVCAR-8 ovarian): > 100 µM

Question: Which results are given for `Cc1ccc(C(=O)N(C2CCCCC2)C2CCCCC2)cc1N=NN(C)C`?
Answer: TGI (COLO 205 colon): 33.6 µM; TGI (SF-268 CNS): 27.7 µM; TGI (NCI-H226 lung): 39.5 µM; TGI (UACC-62 melanoma): 21.6 µM; TGI (MCF7 breast): 29.7 µM; TGI (KM12 colon): 18.7 µM; TGI (U251 CNS): 34.1 µM; TGI (RPMI-8226 leukemia): > 100 µM; TGI (OVCAR-8 ovarian): 27.5 µM

Question: With `CCOC/N=C(/N)NC#N` as the compound, how does the TGI (COLO 205 colon) read?
Answer: > 100 µM

Question: And the TGI (SF-268 CNS)?
Answer: > 100 µM

Question: What about the TGI (NCI-H226 lung) of the same compound?
Answer: > 100 µM

Question: What about the TGI (UACC-62 melanoma) of the same compound?
Answer: > 100 µM

Question: What about the TGI (KM12 colon) of the same compound?
Answer: > 100 µM

Question: And the TGI (A498 renal)?
Answer: > 100 µM

Question: What about the TGI (U251 CNS) of the same compound?
Answer: > 100 µM

Question: And the TGI (RPMI-8226 leukemia)?
Answer: > 100 µM

Question: What about the TGI (OVCAR-8 ovarian) of the same compound?
Answer: > 100 µM

Question: What does the source list for `COc1cc(OC)c2c(O)cc(CC(C)O)cc2c1` (configuration not stated)?
Answer: TGI (COLO 205 colon): > 100 µM; TGI (SF-268 CNS): > 100 µM; TGI (UACC-62 melanoma): > 100 µM; TGI (KM12 colon): > 100 µM; TGI (A498 renal): > 100 µM; TGI (U251 CNS): > 100 µM; TGI (RPMI-8226 leukemia): > 100 µM; TGI (OVCAR-8 ovarian): > 100 µM

Question: With `Cc1ccc([N+](=O)[O-])cc1S(=O)(=O)Nc1ccc(C2=NN(c3ccc([N+](=O)[O-])cc3[N+](=O)[O-])C(c3ccccc3)C2)cc1` (configuration not stated) as the compound, how does the TGI (COLO 205 colon) read?
Answer: 37.4 µM

Question: And the TGI (SF-268 CNS)?
Answer: 28 µM

Question: What about the TGI (NCI-H226 lung) of the same compound?
Answer: 35.6 µM

Question: And the TGI (MCF7 breast)?
Answer: 26.3 µM

Question: And the TGI (KM12 colon)?
Answer: 44.8 µM

Question: And the TGI (U251 CNS)?
Answer: 25.3 µM

Question: What about the TGI (RPMI-8226 leukemia) of the same compound?
Answer: > 100 µM

Question: And the TGI (OVCAR-8 ovarian)?
Answer: 40.2 µM

Question: How did the TGI (COLO 205 colon) turn out when `CC(=O)Oc1ccc(/C=C/C(=O)O[C@@H](C)[C@H](C)OC(=O)/C=C/c2ccc(OC(C)=O)c(OC(C)=O)c2)cc1OC(C)=O` was run?
Answer: > 100 µM

Question: And the TGI (SF-268 CNS)?
Answer: > 100 µM

Question: And the TGI (UACC-62 melanoma)?
Answer: 33.8 µM

Question: What about the TGI (MCF7 breast) of the same compound?
Answer: > 100 µM

Question: What about the TGI (KM12 colon) of the same compound?
Answer: 78.8 µM

Question: What about the TGI (A498 renal) of the same compound?
Answer: 93.9 µM

Question: And the TGI (U251 CNS)?
Answer: > 100 µM

Question: And the TGI (RPMI-8226 leukemia)?
Answer: 39.1 µM

Question: And the TGI (OVCAR-8 ovarian)?
Answer: 53.6 µM

Question: What does the source list for `COC(=O)C12Oc3ccc(-c4ccc5c(c4O)C(=O)C4=CCC(C)C(O)C4(C(=O)OC)O5)c(O)c3C(=O)C1=CCC(C)C2O` (configuration not stated)?
Answer: TGI (COLO 205 colon): 2.75 µM; TGI (SF-268 CNS): 3.57 µM; TGI (NCI-H226 lung): 3.77 µM; TGI (UACC-62 melanoma): 2.82 µM; TGI (KM12 colon): 3.26 µM; TGI (A498 renal): 3.54 µM; TGI (U251 CNS): 3.06 µM; TGI (OVCAR-8 ovarian): 7.33 µM

Question: How did the TGI (COLO 205 colon) turn out when `CCCC/C=C1\CCC(CN2CCCCC2)C1=O` (configuration not stated) was run?
Answer: 29 µM

Question: And the TGI (SF-268 CNS)?
Answer: 51.6 µM

Question: What about the TGI (NCI-H226 lung) of the same compound?
Answer: 63.1 µM

Question: And the TGI (UACC-62 melanoma)?
Answer: 24.8 µM

Question: What about the TGI (MCF7 breast) of the same compound?
Answer: > 100 µM

Question: And the TGI (KM12 colon)?
Answer: > 33.8 µM

Question: What about the TGI (A498 renal) of the same compound?
Answer: 31.6 µM

Question: What about the TGI (U251 CNS) of the same compound?
Answer: 44.1 µM

Question: What about the TGI (OVCAR-8 ovarian) of the same compound?
Answer: 33.1 µM

Question: Which results are given for `COc1ccc(N(C(=O)Nc2ccc(Cl)c(Cl)c2)c2ccccc2)cc1`?
Answer: TGI (COLO 205 colon): > 10 µM; TGI (SF-268 CNS): > 10 µM; TGI (NCI-H226 lung): > 10 µM; TGI (UACC-62 melanoma): > 10 µM; TGI (MCF7 breast): > 10 µM; TGI (KM12 colon): > 10 µM; TGI (A498 renal): > 10 µM; TGI (U251 CNS): > 10 µM; TGI (OVCAR-8 ovarian): > 10 µM

Question: For `CCOC(=O)/C(=C\NCC(O)c1ccccc1)c1nc2ccccc2[nH]1` (configuration not stated), which TGI (COLO 205 colon) is on record?
Answer: 49.8 µM

Question: What about the TGI (SF-268 CNS) of the same compound?
Answer: 40.5 µM

Question: And the TGI (UACC-62 melanoma)?
Answer: 34.8 µM

Question: What about the TGI (MCF7 breast) of the same compound?
Answer: 69 µM

Question: What about the TGI (KM12 colon) of the same compound?
Answer: 67.9 µM

Question: What about the TGI (A498 renal) of the same compound?
Answer: 64.1 µM

Question: What about the TGI (RPMI-8226 leukemia) of the same compound?
Answer: 29.4 µM

Question: What about the TGI (OVCAR-8 ovarian) of the same compound?
Answer: 69.9 µM

Question: What does the source list for `Cc1cc2c(cc1Cl)Sc1nnc(Nc3ccccc3)n1S2(=O)=O`?
Answer: TGI (SF-268 CNS): 11 µM; TGI (NCI-H226 lung): 10.7 µM; TGI (MCF7 breast): 32.4 µM; TGI (KM12 colon): 57.5 µM; TGI (A498 renal): 33.8 µM; TGI (U251 CNS): 19.1 µM; TGI (RPMI-8226 leukemia): 6.91 µM; TGI (OVCAR-8 ovarian): 20.8 µM

Question: What does the source list for `C=CC(=O)N1C/C(=C\c2ccc(N(C)C)cc2)C(=O)/C(=C/c2ccc(N(C)C)cc2)C1`?
Answer: TGI (COLO 205 colon): > 100 µM; TGI (SF-268 CNS): > 100 µM; TGI (NCI-H226 lung): > 100 µM; TGI (UACC-62 melanoma): > 100 µM; TGI (MCF7 breast): > 100 µM; TGI (KM12 colon): > 100 µM; TGI (A498 renal): > 100 µM; TGI (U251 CNS): > 100 µM; TGI (OVCAR-8 ovarian): > 100 µM

Question: What does the source list for `Oc1ccc(/C=C\c2nnc(/C=C\c3ccc(O)c(O)c3)s2)cc1O`?
Answer: TGI (COLO 205 colon): 22.5 µM; TGI (SF-268 CNS): 14.8 µM; TGI (NCI-H226 lung): 20 µM; TGI (UACC-62 melanoma): 14 µM; TGI (MCF7 breast): 12.8 µM; TGI (KM12 colon): 18.9 µM; TGI (A498 renal): 26.2 µM; TGI (U251 CNS): 13.5 µM; TGI (OVCAR-8 ovarian): > 48.4 µM
